Test results as given in ChEMBL document CHEMBL4842365, “Exploring the dNTP -binding site of HIV-1 reverse transcriptase for inhibitor design” (Eur J Med Chem, 2021).
Calls of active or inactive are those of the source. The rule behind the calls is not given here.

Assays:
Conditions in all cases: time 25-30 min
[1] = molecular target: Human immunodeficiency virus type 1 reverse transcriptase (Human immunodeficiency virus 1) (UniProt Q72547); experiment: Inhibition of HIV-1 reverse transcriptase using 5'-Cy5CAGGAAACAGCTATGAC/3'-GTCCTTTGTCGATACTGTTTTTTT-5' as primer/template at 5 mM preincubated for 20 min followed by dATP addition measured after 5 to 10 mins by gel electrophoresis analysis
[2] = molecular target: Human immunodeficiency virus type 1 reverse transcriptase (Human immunodeficiency virus 1) (UniProt Q72547); experiment: Inhibition of HIV-1 reverse transcriptase using 5'-Cy5CAGGAAACAGCTATGAC/3'-GTCCTTTGTCGATACTGTTTTTTT-5' as primer/template at 1 mM preincubated for 20 min followed by dATP addition measured after 5 to 10 mins by gel electrophoresis analysis
[3] = molecular target: Human immunodeficiency virus type 1 reverse transcriptase (Human immunodeficiency virus 1) (UniProt Q72547); experiment: Inhibition of HIV-1 reverse transcriptase using 5'-Cy5CAGGAAACAGCTATGAC/3'-GTCCTTTGTCGATACTGTTTTTTT-5' as primer/template at 10 mM preincubated for 20 min followed by dATP addition measured after 5 to 10 mins by gel electrophoresis analysis

Row | Structure (SMILES) | inhibition [1] | inhibition [2] | inhibition [3]
1 | Nc1ncnc2c1ncn2CCCOC(CP(=O)(O)O)C(=O)O (centres undefined) | Active | inactive | Active
2 | Nc1ncnc2c1ncn2CCOC(CP(=O)(O)O)C(=O)O (racemic) | Active | inactive | Active
3 | C[C@H](Cn1cnc2c(N)ncnc21)N(CCP(=O)(O)O)CC(=O)O | Active | inactive | Active

Continued, values first:

Row | inhibition [1] | inhibition [2] | inhibition [3] | Structure (SMILES)
4 | Active | inactive | Active | Nc1ncnc2c1ncn2CCN[C@@H](CO)C(=O)NP(=O)(O)O
5 | – | inactive | inactive | Nc1ncnc2c1ncn2CCN[C@@H](CP(=O)(O)O)C(=O)O
6 | Active | inactive | Active | Nc1ncnc2c1ncn2CCCN[C@H](CP(=O)(O)O)C(=O)O
7 | – | inactive | inactive | Nc1ncnc2c1ncn2CCN[C@H](CP(=O)(O)O)C(=O)O
